From patent US20210179578A1, “OX1 ANTAGONISTS” (Heptares Therapeutics Limited, priority 2017, published 2021)

Target: T1, human OX2 receptor (Homo sapiens, UniProt O43614)
T1 sequence (O43614 1-444): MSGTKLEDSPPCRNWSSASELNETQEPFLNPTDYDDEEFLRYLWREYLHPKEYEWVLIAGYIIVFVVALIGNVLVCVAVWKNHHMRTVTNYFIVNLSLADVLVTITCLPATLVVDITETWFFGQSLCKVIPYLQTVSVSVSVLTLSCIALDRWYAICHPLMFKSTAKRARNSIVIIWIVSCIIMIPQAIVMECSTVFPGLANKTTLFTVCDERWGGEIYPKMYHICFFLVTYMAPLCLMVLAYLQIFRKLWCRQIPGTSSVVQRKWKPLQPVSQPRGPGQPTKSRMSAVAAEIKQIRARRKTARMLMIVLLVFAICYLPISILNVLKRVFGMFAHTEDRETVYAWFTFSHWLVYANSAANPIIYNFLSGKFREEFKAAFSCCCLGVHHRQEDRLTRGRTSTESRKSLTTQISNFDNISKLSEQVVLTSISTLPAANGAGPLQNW
Experiment: [3H]-radioligand binding assay, OX2
Set-up: made in house; host or cells: SF21 insect cells (baculovirus; P0 virus made in SF9)
Settings: [3H]-radioligand binding, human OX2 membranes; read-out: pKi average OX2 (converted)
Text: Cloning, Baculovirus generation, large-scale infection of SF21 cells and membrane preparation. Human OX1 or OX2 receptor were cloned into Invitrogen's (ThermoFisher Scientific, UK) Bac-to-Bac Baculovirus Expression System. P0 baculovirus was generated by transfecting SF9 cells with bacmid DNA using Cellfectin® II transfection reagent (ThermoFisher Scientific, UK, Catalog number 10362-100). Following P0 generation P1 virus was then generated ready for large scale infection and membrane preparation. SF21 cells were grown in expression medium ESF921 (Expression Systems, USA, catalog number 96-001-01) supplemented with 10% heat-inactivated FBS and 1% Pen/Strep and were infected at a cell density of 2.5×10^6 cells/mL and a multiplicity of infection of 1.0 for both human OX1R and OX2R. Incubation was carried out at over 48 h in a shaking incubator set at 27° C. The cell culture was then centrifuged at 2,500 rcf for 10 min at 4° C. The pellets were resuspended in cold PBS supplemented with Roche's Complete EDTA-free protease inhibitor cocktail tablets (Roche Applied Sciences, catalog number 05056489001), 1 mM PMSF and 1 mM EDTA. The resuspended cell paste was then centrifuged at 3,273 rcf for 12 min at 4° C. The supernatant was discarded and the pellet frozen at −80° C. The cell pellet from a 4 L culture was resuspended in buffer containing 50 mM HEPES pH 7.5, 150 mM NaCl, 8 Roche EDTA-Free protease inhibitor cocktail tablets and 1 mM PMSF. The suspension was left stirring at rt for 1 h and then homogenised for 90 s at 9,500 rpm using a VDI 25 (VWR, USA) homogeniser. The cells were then lysed using a Microfluidiser processor M-110L Pneumatic (Microfluidics, USA) at 60 PSI and membranes collected by ultracentrifugation at 204.7 k×g for 1 h. The supernatant was discarded and the pellet was resuspended and homogenised in 90 s at 9,500 rpm in 50 mL (25 mL for each 2 L culture) of buffer containing 50 mM Hepes pH 7.5, 150 mM NaCl, 3 Roche EDTA-free protease inhibitor cocktail tablets and 1 mM PMSF. The resulting membranes were then stored at −80° C.
[^3H]-radioligand binding assay. After thawing, membrane homogenates were resuspended in the binding buffer (8.5 mM HEPES, pH 7.4, 1.3 mM CaCl2, 1.2 mM MgSO4, 118 mM NaCl, 4.7 mM KCl, 4 mM NaHCO3, 1.2 mM KH2PO4, 11 mM glucose) to a final assay concentration of 6.4 μg (OX1) or 1.4 μg (OX2) protein per well. Saturation isotherms were determined by the addition of various concentrations (0-30 nM) of [^3H]-4-(2,6-difluoro-4-methoxybenzyl)-2-(5,6-dimethoxypyridin-3-yl)-2H-1,2,4-benzothiadiazin-3(4H)-one 1,1-dioxide (Christopher et al, MedChemComm., 2015, 6, 947-955) in a total reaction volume of 250 μL for 90 min at rt. At the end of the incubation, membranes were filtered onto a 96-well GF/B filter pre-incubated with 0.5% polyethylenimine, with a Tomtec cell harvester and washed 5 times with 0.5 mL distilled water. Non-specific binding (NSB) was measured in the presence of 3.33 μM [4-(5-chloro-1,3-benzoxazol-2-yl)-7-methyl-1,4-diazepan-1-yl][5-methyl-2-(2H-1,2,3-triazol-2-yl)phenyl]methanone (Wertz et al, Angew. Chem. Int. Ed., 2011, 50, 11511-11515). Radioactivity on the filter was counted (1 min) on a Microbeta radiometric plate counter (Perkin Elmer) after addition of 50 μL of scintillation fluid (LabLogic: Part #SG-BXX-14). […] IC50 values were derived from the inhibition curve and the equilibrium dissociation constant (Ki) values were calculated using the Cheng-Prusoff equation.

Compound | Ki [nM]
Cc1ccc(N2CCc3c(F)cccc3N(Cc3c(F)cc(Br)cc3F)C2=O)cc1S(C)(=O)=O [Example 27, 1-(4-bromo-2,6-difluorobenzyl)-6-fluoro-3-[4-methyl-3-(methylsulfonyl)phenyl]-1,3,4,5-tetrahydro-2H-1,3-benzodiazepin-2-one] | > 316
CCCc1cc(F)c(CN2C(=O)N(c3ccc(C)c(S(C)(=O)=O)c3)CCc3c(F)cccc32)c(F)c1 [Example 28, 1-(2,6-difluoro-4-propylbenzyl)-6-fluoro-3-[4-methyl-3-(methylsulfonyl)phenyl]-1,3,4,5-tetrahydro-2H-1,3-benzodiazepin-2-one] | > 316
Cc1cc(C)c(S(C)(=O)=O)cc1N1CCc2ccccc2N(Cc2c(F)cc(Br)cc2F)C1=O [Example 29, 1-(4-bromo-2,6-difluorobenzyl)-3-[2,4-dimethyl-5-(methylsulfonyl)phenyl]-1,3,4,5-tetrahydro-2H-1,3-benzodiazepin-2-one] | 100
Cc1cc(C)c(S(C)(=O)=O)cc1N1CCc2c(F)cccc2N(Cc2c(F)cc(Br)cc2F)C1=O [Example 31, 1-(4-bromo-2,6-difluorobenzyl)-3-[2,4-dimethyl-5-(methylsulfonyl)phenyl]-6-fluoro-1,3,4,5-tetrahydro-2H-1,3-benzodiazepin-2-one] | 200
Cc1ncc(N2CCc3c(F)cccc3N(Cc3c(F)cc(Br)cc3F)C2=O)cc1C(C)(F)F [Example 32, 1-(4-bromo-2,6-difluorobenzyl)-3-[5-(1,1-difluoroethyl)-6-methylpyridin-3-yl]-6-fluoro-1,3,4,5-tetrahydro-2H-1,3-benzodiazepin-2-one] | 50.1
COCc1cc(F)c(CN2C(=O)N(c3cnc(C)c(C(C)(F)F)c3)CCc3c(F)cccc32)c(F)c1 [Example 33, 3-[5-(1,1-difluoroethyl)-6-methylpyridin-3-yl]-1-[2,6-difluoro-4-(methoxymethyl)benzyl]-6-fluoro-1,3,4,5-tetrahydro-2H-1,3-benzodiazepin-2-one] | > 251
CCCc1cc(F)c(CN2C(=O)N(c3cnc(C)c(C(C)(F)F)c3)CCc3c(F)cccc32)c(F)c1 [Example 34, 3-[5-(1,1-difluoroethyl)-6-methylpyridin-3-yl]-1-(2,6-difluoro-4-propylbenzyl)-6-fluoro-1,3,4,5-tetrahydro-2H-1,3-benzodiazepin-2-one] | > 251
